Assay results: US20110280806A1, “DYE CONJUGATE IMAGING AGENTS” (priority 2008, published 2011)

Assay: Absorbance of Dye A vs cyanine dye Cy7 (diode array spectrophotometer)
Format: physicochemical
Conditions: 2.5 μM solution, DMSO diluted in PBS
Method: (a) Absorbance and fluorescence of Dye A vs Cyanine Dye Cy7.
0.1 to 0.2 mg vials of the dyes were dissolved initially in 100 μl DMSO and then diluted in PBS to the specified concentrations. Absorbance measurements were performed on 2.5 μM solutions, with a HP 8452A Diode array spectrophotometer. Fluorescence measurements were performed on 250 nM solutions, with a Varian Cary Eclipse Fluorescence Spectrophotometer at standardised instrument settings (600V PMT setting).

measured absorbance equates to (molar extinction) (at 748 nm) | measured absorbance equates to (molar extinction) (at 746 nm) | SMILES
250,000 /M/cm |  | CCN1C(=CC=CC=CC=CC2=[N+](CCCCCC(=O)O)c3ccc(S(=O)(=O)O)cc3C2(C)C)C(C)(C)c2cc(S(=O)(=O)[O-])ccc21 [Cy7]
 | 260,000 /M/cm | CN1C2=C/C(=C/C=C/C3=CC4=[N+](C)c5ccccc5C4(C)C(C)(C)C3)CC(C)(C)C2(C)c2ccccc21 (centres unmarked) [Dye A, 4,4,4a,9-Tetramethyl-2-(3-(1E-4,4,4a,9-tetramethyl-4,4a-dihydro-3H-carbazol-2-ylidenyl)prop-1-enyl)-4,4a-dihydro-3H-carbazolium iodide]
